Source: US20020086862A1, “Novel compounds” (AstraZeneca AB, priority 1998, published 2002)

Row | melting point [°C] | SMILES
1 | 237 to 238 | N#Cc1ccc(-c2nn(Cc3ccccc3)c(=S)[nH]2)cc1 [Example 7, 5-(4-Cyanophenyl)-1,2-dihydro-2-(phenylmethyl)-3H-1,2,4-triazole-3-thione]
2 | 147 to 148 | O=[N+]([O-])c1ccccc1-c1nn(Cc2ccccc2)c(=S)[nH]1 [Example 6, 1,2-Dihydro-5-(2-nitrophenyl)-2-(phenylmethyl)-3H-1,2,4-triazole-3-thione]
3 | 177 to 178 | Cc1cccc(Cn2nc(-c3ccc(Cl)cc3Cl)[nH]c2=S)c1 [Example 43, 5-(2,4-Dichlorophenyl)-1,2-dihydro-2-[(3-methylphenyl)methyl]-3H-1,2,4-triazole-3-thione]
4 | 170 to 171 | CSc1ccccc1-c1nn(Cc2ccccc2)c(=S)[nH]1 [Example 38, 1,2-Dihydro-5-[2-(methylthio)phenyl]-2-(phenylmethyl)-3H-1,2,4-triazole-3-thione]
5 | 179 to 180 | S=c1[nH]c(-c2cccc(Cl)c2Cl)nn1Cc1ccccc1 [Example 8, 5-(2,3-Dichlorophenyl)-1,2-dihydro-2-(phenylmethyl)-3H-1,2,4-triazole-3-thione]
6 | 137 to 138 | S=c1[nH]c(-c2ccccc2Cl)nn1Cc1cccc(Oc2ccccc2)c1 [Example 52, 5-(2-Chlorophenyl)-1,2-dihydro-2-[(3-phenyloxy)phenylmethyl]-3H-1,2,4-triazole-3-thione]
7 | 227 to 228 | S=c1[nH]c(-c2ccc(Cl)c(Cl)c2)nn1Cc1ccccc1 [Example 25, 5-(3,4-Dichlorophenyl)-1,2-dihydro-2-(phenylmethyl)-3H-1,2,4-triazole-3-thione]
8 | 155 to 156 | S=c1[nH]c(-c2cccnc2Cl)nn1Cc1ccccc1 [Example 16, 5-(2-Chloro-3-pyridinyl)-1,2-dihydro-2-(phenylmethyl)-3H-1,2,4-triazole-3-thione]
9 | 175 to 176 | S=c1[nH]c(-c2cccc(Cl)c2)nn1Cc1ccccc1 [Example 5, 5-(3-Chlorophenyl)-1,2-dihydro-2-(phenylmethyl)-3H-1,2,4-triazole-3-thione]
10 | 167 to 168 | FC(F)(F)c1ccc(Cn2nc(-c3ccccc3Cl)[nH]c2=S)cc1 [Example 53, 5-(2-Chlorophenyl)-1,2-dihydro-2-[[4-(trifluoromethyl)phenyl]methyl]-3H-1,2,4-triazole-3-thione]
11 | 166 to 167 | Cc1ccc(C)c(Cn2nc(-c3ccccc3Cl)[nH]c2=S)c1 [Example 60]
12 | 234 to 235 | Cc1ccc(-c2nn(Cc3ccccc3)c(=S)[nH]2)cc1 [Example 24, 1,2-Dihydro-5-(4-methylphenyl)-2-(phenylmethyl)-3H-1,2,4-triazole-3-thione]
13 | 183 to 184 | S=c1[nH]c(-c2ccc(Oc3ccccc3)cc2)nn1Cc1cccc(Cl)c1 [Example 55, 2-[(3-Chlorophenyl)methyl]-5-(4-phenoxyphenyl)-1,2-dihydro-3H-1,2,4-triazole-3-thione]
14 | 205 to 206 | S=c1[nH]c(-c2ccc(Cl)cc2Cl)nn1Cc1ccc(Cl)cc1 [Example 45, 2-[(4-Chlorophenyl)methyl]-5-(2,4-dichlorophenyl)-1,2-dihydro-3H-1,2,4-triazole-3-thione]
15 | 135 to 136 | Fc1ccc(-c2nn(Cc3ccccc3)c(=S)[nH]2)c(Cl)c1 [Example 22, 5-(2-Chloro-4-fluorophenyl)-1,2-dihydro-2-(phenylmethyl)-3H-1,2,4-triazole-3-thione]
16 | 79 to 80 | S=c1[nH]c(-c2ccc(Cl)s2)nn1Cc1ccccc1 [Example 4, 5-(5-Chloro-2-thienyl)-1,2-dihydro-2-(phenylmethyl)-3H-1,2,4-triazole-3-thione]
17 | 180 to 181 | S=c1[nH]c(-c2ccc(Cl)cc2Cl)nn1Cc1cccc(Oc2ccccc2)c1 [Example 34, 5-(2,4-Dichlorophenyl)-1,2-dihydro-2-[(3-phenoxyphenyl)methyl]-3H-1,2,4-triazole-3-thione]
